Assay results taken from patent publication US7670967B2, “Dispersible alcohol/cleaning wipes via topical or wet-end application of acrylamide or vinylamide/amine polymers” (Kimberly-Clark Worldwide, Inc., priority 2004, dated 2010).

Assay: Solubility parameter (Hildebrand parameter) values for selected solvents and polyacrylamide
Conditions: solvent with polyacrylamide homopolymer, δ 21
From the text: Determination of a suitable lower level alcohol, glycol, ketone, or mixtures thereof may be conducted using the solubility. The solubility of an amorphous polymer in a given solvent is governed by the Gibbs free energy of mixing given by Equation (1): ΔGm=ΔHm−TΔSm (1 ) ΔGm is the free energy change of the system upon mixing. ΔHm and ΔSm are the enthalpy and entropy change upon mixing, respectively, and T is the absolute temperature. When the free energy of mixing is less than zero (ΔGm<0) for a given polymer and solvent (or solvent mixture thereof), a single-phase system is obtained and mixing occurs spontaneously.
Solubility parameters, originally developed to describe enthalpy of mixing with simple nonpolar solvents, have been extended to describe the interactions of polymers and polar solvent. The enthalpy of mixing of such systems is expressed in a form like Equation (2):
[formula] […]
The units of δ may be difficult to rationalize. They are generally expressed as units of MPa½ or (cal/cm^3)^1/2. One simple way to understand these units is to note that Equation (4) calls for a solution in terms of a quantity of energy. It can be readily seen that substitution of δ values in terms of (cal/cm^3)^1/2 or MPa½ into Equation (4) results in a quantity of energy in terms of calories or joules, respectively, after unit cancellation (1 MPa=1 kJ/m^3). […]

| Molecule | (δ1 − δ2)^2 PAM (cohesive energy difference parameter) |
| --- | --- |
| CC(C)=O [Acetone] | 123.2 |
| n-Propyl alcohol | 82.8 |
